Mutagenic call data for three molecules are collected here from PubChem BioAssay AID1259407 (Chemical Carcinogenesis Research Information System (CCRIS), 2018).

The test system of this data set is CCRIS mutagenicity, Ames/micronucleus/aberration tests. As to the kind of experiment: CCRIS mutagenicity studies.
[1] abbreviates: Test System: AMES SALMONELLA TYPHIMURIUM, Strain/Indicator: TA100, Metabolic Activation: NONE, Method: STANDARD PLATE.

SMILES strings stand for the structures. The source made the active and inactive calls. No rule for the calls is given here.

As for `CCOCCOC(C)=O`, the mutagenic call is, setting by setting: (Test System: AMES SALMONELLA TYPHIMURIUM, Strain/Indicator: TA98, Metabolic Activation: NONE, Method: PREINCUBATION) “inactive; negative”; (Test System: AMES SALMONELLA TYPHIMURIUM, Strain/Indicator: TA98, Metabolic Activation: RAT LIVER S-9, PHENOBARBITAL AND BETA-NAPHTHOFLAVONE, Method: PREINCUBATION) “inactive; negative”; (Test System: AMES SALMONELLA TYPHIMURIUM, Strain/Indicator: TA100, Metabolic Activation: NONE, Method: PREINCUBATION) “inactive; negative”; (Test System: AMES SALMONELLA TYPHIMURIUM, Strain/Indicator: TA100, Metabolic Activation: RAT LIVER S-9, PHENOBARBITAL AND BETA-NAPHTHOFLAVONE, Method: PREINCUBATION) “inactive; negative”; (Test System: AMES SALMONELLA TYPHIMURIUM, Strain/Indicator: TA102, Metabolic Activation: NONE, Method: PREINCUBATION) “inactive; negative”; (Test System: AMES SALMONELLA TYPHIMURIUM, Strain/Indicator: TA102, Metabolic Activation: RAT LIVER S-9, PHENOBARBITAL AND BETA-NAPHTHOFLAVONE, Method: PREINCUBATION) “inactive; negative”. For the same molecule, the mutagenic call is “inactive; negative” (Test System: AMES SALMONELLA TYPHIMURIUM, Strain/Indicator: TA104, Metabolic Activation: NONE, Method: PREINCUBATION); “inactive; negative” (Test System: AMES SALMONELLA TYPHIMURIUM, Strain/Indicator: TA104, Metabolic Activation: RAT LIVER S-9, PHENOBARBITAL AND BETA-NAPHTHOFLAVONE, Method: PREINCUBATION); “inactive; negative” (Test System: AMES SALMONELLA TYPHIMURIUM, Strain/Indicator: TA1535, Metabolic Activation: NONE, Method: PREINCUBATION); “inactive; negative” (Test System: AMES SALMONELLA TYPHIMURIUM, Strain/Indicator: TA1535, Metabolic Activation: RAT LIVER S-9, PHENOBARBITAL AND BETA-NAPHTHOFLAVONE, Method: PREINCUBATION); “inactive; negative” (Test System: AMES SALMONELLA TYPHIMURIUM, Strain/Indicator: TA1537, Metabolic Activation: NONE, Method: PREINCUBATION); “inactive; negative” (Test System: AMES SALMONELLA TYPHIMURIUM, Strain/Indicator: TA1537, Metabolic Activation: RAT LIVER S-9, PHENOBARBITAL AND BETA-NAPHTHOFLAVONE, Method: PREINCUBATION). Moreover, the mutagenic call is “inactive; negative” (Test System: E.COLI, Strain/Indicator: WP2UVRA/PKM101, Metabolic Activation: NONE, Method: PREINCUBATION); “inactive; negative” (Test System: E.COLI, Strain/Indicator: WP2UVRA/PKM101, Metabolic Activation: RAT LIVER S-9, PHENOBARBITAL AND BETA-NAPHTHOFLAVONE, Method: PREINCUBATION); “inactive; negative” (Test System: E.COLI, Strain/Indicator: WP2UVRA, Metabolic Activation: NONE, Method: PREINCUBATION); “inactive; negative” (Test System: E.COLI, Strain/Indicator: WP2UVRA, Metabolic Activation: RAT LIVER S-9, PHENOBARBITAL AND BETA-NAPHTHOFLAVONE, Method: PREINCUBATION).
`Cn1c2ccccc2c(=O)c2c(O)cc3c(c21)CC(C1(C)CO1)O3` (stereo not given): the mutagenic call was “active; positive” (Test System: AMES SALMONELLA TYPHIMURIUM, Strain/Indicator: TA98, Metabolic Activation: NONE, Method: STANDARD PLATE); “active; positive” (Test System: AMES SALMONELLA TYPHIMURIUM, Strain/Indicator: TA98, Metabolic Activation: RAT, LIVER, S-9, 3-METHYLCHOLANTHRENE, Method: STANDARD PLATE); “active; positive” (Test System: AMES SALMONELLA TYPHIMURIUM, Strain/Indicator: TA98, Metabolic Activation: RAT, LIVER, S-9, PHENOBARBITAL, Method: STANDARD PLATE); “active; positive” (Test System: AMES SALMONELLA TYPHIMURIUM, Strain/Indicator: TA98, Metabolic Activation: RAT, LIVER, S-9, Method: STANDARD PLATE); “active; positive” under setting [1]; “active; positive” (Test System: AMES SALMONELLA TYPHIMURIUM, Strain/Indicator: TA100, Metabolic Activation: RAT, LIVER, S-9, 3-METHYLCHOLANTHRENE, Method: STANDARD PLATE). In addition, the mutagenic call is “active; positive” (Test System: AMES SALMONELLA TYPHIMURIUM, Strain/Indicator: TA100, Metabolic Activation: RAT, LIVER, S-9, PHENOBARBITAL, Method: STANDARD PLATE) and “active; positive” (Test System: AMES SALMONELLA TYPHIMURIUM, Strain/Indicator: TA100, Metabolic Activation: RAT, LIVER, S-9, Method: STANDARD PLATE).
As for `O=C1C(Cl)=C(Cl)C(=O)C1(Cl)Cl`, the mutagenic call under setting [1] is “inactive; negative”.
